Measurements published in patent US20100129317A1 (priority 2006, published 2010).
“Also recorded” adds a separate entry of the source.

Tests used:
[1] = target: T1, Human adenosine kinase (Homo sapiens, UniProt P55263); assay: Adenosine kinase activity with selected nucleoside analogs (conversion to 5'-monophosphate, HPLC); format: biochemical; settings: 100 μM of each compound and ATP, 37° C., conversion to 5'-monophosphate by HPLC
[2] = tested on: Hantaan virus (HTNV); format: cell-based
[3] = tested on: Crimean Congo Hemorraghic fever virus (CCHFV); format: cell-based
[4] = tested on: human CEM cells; assay: Metabolism to phosphorylated intracellular metabolites in human cells
[5] = tested on: GTP levels in human cells; assay: Intracellular GTP levels in human cells; format: cell-based; settings: for effect of treatment on GTP levels in human cells: 10 μM
[6] = tested on: influenza A/Udorn/72; format: cell-based, Influenza A H3N2
[7] = target: T1, Human adenosine kinase; assay: Radiolabeled TA-18 as substrate for human adenosine kinase; format: biochemical; settings: radiolabeled compound, 10 μM

T1 sequence (P55263 whole entry): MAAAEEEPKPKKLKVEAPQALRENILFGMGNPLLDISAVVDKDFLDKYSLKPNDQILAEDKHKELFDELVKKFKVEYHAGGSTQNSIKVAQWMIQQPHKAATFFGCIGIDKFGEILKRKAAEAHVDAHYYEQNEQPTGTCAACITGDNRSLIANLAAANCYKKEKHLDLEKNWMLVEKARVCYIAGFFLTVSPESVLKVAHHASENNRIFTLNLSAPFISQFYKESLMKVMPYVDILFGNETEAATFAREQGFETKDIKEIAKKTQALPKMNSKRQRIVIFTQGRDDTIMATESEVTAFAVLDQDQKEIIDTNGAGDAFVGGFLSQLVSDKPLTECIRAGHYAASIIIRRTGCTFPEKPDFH

NC(=O)CC(O)c1ncn([C@@H]2O[C@H](CO)[C@@H](O)[C@H]2O)n1 (stereo partly drawn) [TA-20, 3-(1-β-D-ribofuranosyl-[1,2,4]triazol-3-yl)-3-hydroxypropionamide]
Activity as a percent of ribavirin [1]: 5% of ribavirin

OC[C@H]1O[C@@H](n2cnc(C(O)c3ccccc3)n2)C(O)[C@H]1O (stereo partly drawn) [TA-14, 1-(1-β-D-ribofuranosyl-[1,2,4]triazol-3-yl)-phenylmethanol]
antiviral activity against HTNV [2]: showed antiviral activity

O=[N+]([O-])c1ncn([C@@H]2O[C@H](CO)C(O)[C@@H]2O)n1 (some centres unmarked) [TA-1]
antiviral activity against CCHFV [3]: showed antiviral activity

CC(=O)c1ncn([C@@H]2O[C@H](CO)[C@@H](O)[C@H]2O)n1 [TA-13, 1-(1-β-D-ribofuranosyl-[1,2,4]triazole-3-yl)-ethanone]
Activity as a percent of ribavirin [1]: 8% of ribavirin

Nc1c(C(=O)Nc2cccc(F)c2)ncn1[C@@H]1O[C@H](CO)C(O)C1O (stereo partly drawn) [RN-3, 5-amino-4-N-3-fluorophenylcarboxamide-1-β-D-ribofuranosyl-1H-imidazole]
antiviral activity against HTNV [2]: showed activity

Nc1ncnc2c1c(I)cn2[C@@H]1O[C@H](CO)[C@@H](O)[C@H]1O [iodotubercidin, reference compound]
effect of adenosine kinase inhibition with iodotubercidin on the metabolism of TA-18 ([4]; human cells): inhibited the metabolism of TA-18 | effect of adenosine kinase inhibition with iodotubercidin on the decline in GTP levels caused by TA-18 [5]: prevented the decline in GTP levels caused by TA-18

C#Cc1ncn([C@@H]2O[C@H](CO)[C@@H](O)[C@H]2O)n1 [TA-18, 3-ethynyl-1-(β-D-ribofuranosyl)-[1,2,4]triazole]
Activity as a percent of ribavirin [1]: 25% of ribavirin | antiviral activity against influenza [6]: showed antiviral activity | antiviral activity against CCHFV [3]: showed antiviral activity | conversion to phosphorylated metabolites in human cells ([4]; human CEM cells, 10 μM): converted to phosphorylated metabolites | substrate for human adenosine kinase (radiolabeled TA-18) [7]: it is a substrate for human adenosine kinase; also recorded: subs ate for human adenosine kinase | effect of treatment on GTP levels in human cells [5]: decline in GTP levels | potency of metabolites in reducing GTP levels compared with ribavirin metabolites ([5]; inferred from metabolite amounts and GTP decline): more potent in reducing GTP levels than the ribavirin metabolites | antiviral activity against HTNV [2]: showed antiviral activity

O=c1c2ncn([C@@H]3O[C@H](CO)[C@@H](O)[C@H]3O)c2ncn1-c1cccc(F)c1 [IA-3, N^1-(3-fluorophenyl)-inosine]
antiviral activity against HTNV [2]: showed antiviral activity

NC(=O)c1ncn([C@@H]2O[C@H](CO)[C@@H](O)[C@H]2O)n1 [ribavirin, reference compound]
effect of treatment on GTP levels in human cells [5]: decrease in GTP levels
